From paper PMC3831620 (Naunyn-Schmiedeberg's archives of pharmacology, 2012)
Read-outs that look alike come from different tables or passages of the source.

Legend:
[1] = system: any adenosine receptor subtype; assay: Radioligand competition binding, stated for any adenosine receptor subtype; parameters: species or system human; conditions: for binding affinity in words: any adenosine receptor subtype, data not shown; for Ki: read-out: Ki at any of the adenosine receptor subtypes, any subtype
A2A adenosine receptor = A2A adenosine receptor (Homo sapiens, UniProt P29274); assay: A2A receptor-mediated stimulation of adenylyl cyclase, CHO membranes; assay type: biochemical; conditions: for efficacy compared to the full agonist NECA: A2A stimulation of adenylyl cyclase, 1 μM NECA control; for agonist character at the A2A adenosine receptor: compared to NECA
adenosine A1 receptor = molecular target: T1, adenosine A1 receptor (Homo sapiens, UniProt P30542); assay: Radioligand competition binding, [3H]CCPA, membranes of transfected CHO cells; conditions: Ki A1 (curve of Figure 2), single experiment
T1 sequence (P30542 1-326): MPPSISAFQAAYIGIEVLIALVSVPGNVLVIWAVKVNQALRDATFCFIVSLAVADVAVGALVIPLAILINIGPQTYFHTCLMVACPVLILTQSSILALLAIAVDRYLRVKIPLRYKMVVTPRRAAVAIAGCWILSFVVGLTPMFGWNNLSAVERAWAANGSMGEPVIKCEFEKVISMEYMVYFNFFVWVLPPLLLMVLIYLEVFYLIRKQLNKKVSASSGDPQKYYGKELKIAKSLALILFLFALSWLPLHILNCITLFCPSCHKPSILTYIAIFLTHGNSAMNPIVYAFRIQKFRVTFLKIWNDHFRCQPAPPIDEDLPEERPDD

adenosine A3 receptor = molecular target: T2, adenosine A3 receptor (Homo sapiens, UniProt P0DMS8); assay: Radioligand competition binding, [3H]HEMADO, membranes of transfected CHO cells
T2 sequence (P0DMS8 1-318): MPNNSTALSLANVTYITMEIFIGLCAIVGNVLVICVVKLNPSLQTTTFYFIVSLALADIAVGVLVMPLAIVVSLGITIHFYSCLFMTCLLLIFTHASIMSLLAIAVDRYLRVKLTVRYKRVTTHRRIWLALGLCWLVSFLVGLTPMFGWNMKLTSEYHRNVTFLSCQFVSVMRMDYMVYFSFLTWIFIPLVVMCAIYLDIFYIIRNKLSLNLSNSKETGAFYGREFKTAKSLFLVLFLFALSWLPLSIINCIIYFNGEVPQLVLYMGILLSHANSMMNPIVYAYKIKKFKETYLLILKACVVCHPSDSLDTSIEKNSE

[2] = system: adenosine receptor subtype A1; conditions: murine models; ref Lorenzen et al. 1998; cited from earlier work
A1 receptor = molecular target: T3, A1 receptor (Homo sapiens, UniProt P30542); assay type: biochemical; conditions: for maximal inhibition of forskolin-stimulated adenylyl cyclase: compared with CCPA, n = 3
T3 sequence (P30542 1-326): T1 sequence (P30542 1-326)

adenosine A2A receptor = adenosine A2A receptor (Homo sapiens, UniProt P29274); assay: Radioligand competition binding, [3H]NECA, membranes of transfected CHO cells; conditions: Ki A2A (curve of Figure 2B), single experiment
A2B receptor = molecular target: T4, A2B receptor (Homo sapiens, UniProt P29275); assay: A2B receptor-mediated adenylyl cyclase activity, CHO membranes; assay type: biochemical
T4 sequence (P29275 1-332): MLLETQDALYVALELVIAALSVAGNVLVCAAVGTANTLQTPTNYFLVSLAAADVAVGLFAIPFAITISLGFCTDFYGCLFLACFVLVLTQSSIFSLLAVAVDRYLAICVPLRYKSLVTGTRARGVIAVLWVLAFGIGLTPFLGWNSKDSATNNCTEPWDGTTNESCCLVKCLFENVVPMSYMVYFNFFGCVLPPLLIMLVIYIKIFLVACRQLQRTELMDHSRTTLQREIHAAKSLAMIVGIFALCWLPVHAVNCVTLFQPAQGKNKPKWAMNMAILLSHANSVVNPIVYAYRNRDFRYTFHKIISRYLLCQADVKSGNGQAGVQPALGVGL

[3] = hematopoietic cell transplant; ref Beitinjaneh et al. 2011, Chun et al. 1986, Ding et al. 2008; cited from earlier work

Chain of A2A adenosine receptor (P29274 whole entry): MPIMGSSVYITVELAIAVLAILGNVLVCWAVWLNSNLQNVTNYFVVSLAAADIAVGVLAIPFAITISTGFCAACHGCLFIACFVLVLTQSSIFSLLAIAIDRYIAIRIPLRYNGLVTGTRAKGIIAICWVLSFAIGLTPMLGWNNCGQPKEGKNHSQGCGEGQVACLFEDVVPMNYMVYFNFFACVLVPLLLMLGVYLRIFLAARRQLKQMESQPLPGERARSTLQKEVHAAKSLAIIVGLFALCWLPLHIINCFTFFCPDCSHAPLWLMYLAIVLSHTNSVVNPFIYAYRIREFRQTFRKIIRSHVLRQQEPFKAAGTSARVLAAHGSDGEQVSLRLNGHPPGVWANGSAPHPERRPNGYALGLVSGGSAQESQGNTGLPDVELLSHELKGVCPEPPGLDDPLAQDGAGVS
Chain of adenosine A2A receptor (P29274 whole entry): as above

Structure (SMILES)	binding affinity in words [1]	IC50 (A2A adenosine receptor)	efficacy compared to the full agonist NECA (A2A adenosine receptor)	agonist character at the A2A adenosine receptor (A2A adenosine receptor)	Ki (adenosine A1 receptor)	Ki (adenosine A3 receptor)	IC50 (A1 receptor)	maximal inhibition of forskolin-stimulated adenylyl cyclase (A1 receptor)	Ki [1]	also measured
Nc1nc(F)nc2c1ncn2[C@@H]1O[C@H](COP(=O)(O)O)[C@@H](O)[C@@H]1O [Fludarabine monophosphate, 2-fluoroadenine-9-β-D-arabinofuranoside-5′phosphate]	no detectable affinity	–	–	–	–	–	–	–	–	–
Nc1nc(Cl)nc2c1ncn2[C@H]1C[C@H](O)[C@@H](CO)O1 [cladribine, 2-chloro-2′-deoxyadenosine]	–	16.1 µM	~40%	partial agonists	1.64 µM	> 100 µM	> 10 µM	comparable to the full A1 receptor agonist CCPA	–	agonist character at adenosine receptor subtype A1 [2]: partial agonist
Nc1nc(Cl)nc2c1ncn2[C@@H]1O[C@H](CO)[C@@H](O)[C@@H]1F [clofarabine, 2-chloro-2′-arabino-fluoro-2′-deoxyadenosine]	–	9.8 µM	about 50%	partial agonists	0.248 µM	–	–	comparable to the full A1 receptor agonist CCPA	–	Ki (adenosine A3 receptor; Ki A3 (curve of Figure 2B), [3H]HEMADO, single experiment): 8.28 µM; Ki (adenosine A2A receptor): 17.5 µM; EC50 (A2B receptor): > 100 µM; efficacy in decreasing adenylyl cyclase activity, comparison (A1 receptor; 10 μM, versus equivalent concentrations of fludarabine or cladribine): more efficacious; IC50 (A1 receptor; IC50 A1 agonist, adenylyl cyclase inhibition, values in text and abstract): 3.1 µM
Nc1ccn([C@@H]2O[C@H](CO)[C@@H](O)[C@@H]2O)c(=O)n1 [cytarabine, cytosine β-D-arabinofuranoside]	no detectable affinity	–	–	–	–	–	–	–	> 100 µM	–
Nc1nc(F)nc2c1ncn2[C@@H]1O[C@H](CO)[C@@H](O)[C@@H]1O [fludarabine, 2-fluoroadenine-9-β-D-arabinofuranoside]	–	–	–	–	2.24 µM	> 100 µM	> 10 µM	comparable to the full A1 receptor agonist CCPA	–	patients experiencing mild to severe neurological toxicities [3]: 2-10%
Nc1ccn([C@@H]2O[C@H](CO)[C@@H](O)C2(F)F)c(=O)n1 [gemcitabine, 2′,2′-difluoro-2′-deoxycytidine]	no detectable affinity	–	–	–	–	–	–	–	> 100 µM	–
